Test results reported in patent publication US5192758A, “2-biphenyl-carbapenem antibacterial agents” (Merck & Co., Inc., priority 1992, dated 1993).

These compounds were tested on rat (assay: Intracisternal assay: convulsant response (seizure potential)). Settings: injection of 20 micro-liters into the intracisternal cavity, amount giving a 50% seizure rate.
Format: in vivo
From the text: Central to the instant invention was the safety benefit realized by the incorporation of the cyano group to the imidazoliummethylbiphenyl moiety of the carbapenem nucleus, as shown in Table II below. […] This difference in activity was statistically significant and allows one to anticipate a much greater CNS safety profile for the compounds depicted.
The figure reported in Table II was the amount of active compound giving a 50% seizure rate in the rat, serving as a model for humans. For each compound, different concentrations were prepared in water and for each concentration, a group of animals were given an injection of 20 micro-liters into the intracisternal cavity. The seizure response of each member of the group was noted by observation.

Compound | CONVULSANT RESPONSE MCG/HEAD-ED50
CC(O)C1C(=O)N2C(C(=O)[O-])=C(c3cc(C#N)cc(-c4ccc(C[n+]5ccn(CCO)c5)cc4)c3)CC12 (centres unmarked) [R^c = CH2 CH2 OH, R' = CN] | 100 MCG/HEAD
CC(O)C1C(=O)N2C(C(=O)[O-])=C(c3cccc(-c4ccc(C[n+]5ccn(CCO)c5)cc4)c3)CC12 (centres unmarked) [R^c = CH2 CH2 OH, R' = H] | 35 MCG/HEAD
CC(O)C1C(=O)N2C(C(=O)[O-])=C(c3cc(Br)cc(-c4ccc(C[n+]5ccn(C)c5)cc4)c3)CC12 (centres unmarked) [R^c = CH3, R' = Br] | < 12.5 MCG/HEAD
CC(O)C1C(=O)N2C(C(=O)[O-])=C(c3cc(C#N)cc(-c4ccc(C[n+]5ccn(C)c5)cc4)c3)CC12 (centres unmarked) [R^c = CH3, R' = CN] | 100 MCG/HEAD
CC(O)C1C(=O)N2C(C(=O)[O-])=C(c3cccc(-c4ccc(C[n+]5ccn(C)c5)cc4)c3)CC12 (centres unmarked) [R^c = CH3, R' = H] | 35 MCG/HEAD
